A word on the viability, T/C: it is the result in the treated group divided by that in the control group, in per cent. The term IC50 denotes the midpoint of a concentration-inhibition curve.

The test system of this experiment is 832693-133-R-J1-PDC multi-cell spheroids, viability. Put plainly: Anticancer human tumor 832693-133-R-J1-PDC patient-derived head and neck squamous carcinoma cell line growth inhibition [IpAb]. Conditions: for viability, T/C: stronger effect = lower value. The source says:
Combinatorial screen of targeted agents with ipatasertib and abemaciclib in multi-cell type tumor spheroids
A high-throughput screen of multi-cell type tumor spheroids was designed to identify active combinations of targeted small molecules and ipatasertib or abemaciclib. Complex spheroids include a stromal component modeled by human endothelial cells (HUVEC) and fibroblasts modeled by human mesenchymal stem cells (MSCs). The concentration ranges selected for each drug and investigational agent were based upon clinically achievable concentrations if the clinical Cmax of the agent was known.
Compounds. The drugs and investigational agents: ipatasertib (NSC767898), abemaciclib(NSC768073), selumetinib (NSC741078), trametinib (758246), adavosertib (NSC754352), everolimus (NSC733504), sapanisertib (NSC764658), vemurafenib (NSC761431), venetoclax (NSC766270), copanlisib (NSC809693), apelisib (NSC765974), palbociblib (NSC758247), vemurafenib (NSC761431), dabrafenib (NSC764134), ravoxertinib (NSC781343), BMS-387032 (NSC767048), sotorasib (NSC818433), talazoparib (NSC767125) and afursertib (NSC778305), were obtained from the National Cancer Institute (NCI) Developmental Therapeutics Program Chemical Repository. The FDA-approved anticancer drug set is available from the NCI Developmental Therapeutics Program. […] The stock solutions were prepared in dimethyl sulfoxide (DMSO, Sigma-Aldrich, St. Louis, MO, cat. D2650) at 800-fold the tested concentration and stored at -70 degrees C prior to their use. All drugs and investigational agents were tested over a range starting from a high concentration at or near the clinical Cmax and decreasing in half-log increments. If the clinical Cmax for an agent had not been determined, the highest concentration tested was 10 microM.
NCI60 Cell Culture. NCI60 cell lines were obtained from the NCI Developmental Therapeutics Program Tumor Repository. For each lot of cells, the Repository performed Applied Biosystems AmpFLSTR Identifiler testing with PCR amplification to confirm consistency with the published Identifier STR profile for each cell line. Cells were kept in continuous culture for no more than 20 passages. The optimal seeding densities for each of the cell lines at each time point assessed were determined prior to performing the concentration response studies. Briefly, the NCI60 human tumor lines were grown as monolayers in RPMI 1640 medium supplemented with 10% FBS and 2 mmol/L L-glutamine.
An additional 9 lines were from the NCI60 cell line panel including MDA-MB-231 breast carcinoma, MDA-MB-468 breast carcinoma, MCF7 breast carcinoma, Hs578T breast carcinoma, MALME-3M melanoma, SK-MEL-2 melanoma, SK-OV-3 ovarian carcinoma, DU-145 prostate carcinoma, PC-3 prostate carcinoma, all cell lines along with major genetic alterations are listed on Table 2. Pooled donor human umbilical vein endothelial cells (HUVEC, Lonza, cat. CC-2519) and human mesenchymal stem cells (hMSC, Lonza, cat. PT-2501) were purchased from Lonza (Walkersville, MD).
PDMR cell lines were grown in complete medium (DC medium): Dulbecco's modified Eagle's medium (DMEM)/F12 supplemented with 5% fetal bovine serum (FBS), 2 mM L-glutamine, 100 U/mL penicillin and 100 µg/ml streptomycin, 0.4 µg/ml hydrocortisone, 10 ng/ml epidermal growth factor (EGF) recombinant human protein, 24 µg/mL adenine, and 0.1 mg/mL primocin. During culture from frozen stock vials, PDMR cells were cultured in the same medium containing 10 µM Y-27632 (see Table 3). The PDCs were cultured in complete DMEM/F12 media without 10 microM Y-27632 dihydrochloride for at least two passages prior to the screen. The pooled donor HUVEC and hMSC were cultured in endothelial cell growth medium 2 (PromoCell, Heidelberg, Germany, cat. C-22011) and mesenchymal stem cell growth medium 2 (PromoCell, cat. C-28009), respectively. For all experiments, HUVEC and hMSC were used at passages </=5.
[…]

“And” between values parts separate entries of the source, which are not always exact repeats. Equal entries are not always repeated.
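Also: spheroids exposed to the drugs for one week before the viability readout.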
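For viability, T/C in this document: 100% = DMSO vehicle control wells.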

For `C=CC(=O)N1CCN(c2nc(=O)n(-c3c(C)ccnc3C(C)C)c3nc(-c4c(O)cccc4F)c(F)cc23)C(C)C1` (stereo unspecified), the viability, T/C reads like this: (compound 0.0316 µM) 105% and 95%; (compound 0.1 µM) 108% and 101%; (compound 0.316 µM) 111% and 103%; (compound 1 µM) 114% and 115%; (compound 3.16 µM) 122% and 110%; (compound 10 µM) 100% and 98.5%. Also, for the setting “curve of compound”, the IC50 was above 10000 nM.

Regarding `C=CCn1c(=O)c2cnc(Nc3ccc(N4CCN(C)CC4)cc3)nc2n1-c1cccc(C(C)(C)O)n1`, the viability, T/C is 94% and 91.3% (compound 0.0316 µM); 79.8% and 71.9% (compound 0.1 µM); 32.5% and 35.4% (compound 0.316 µM); 27% and 31.5% (compound 1 µM); 25.9% and 28.6% (compound 3.16 µM); 12.5% and 11.7% (compound 10 µM). For the setting “curve of compound”, the IC50 was 208 nM and 221 nM.

On to `CC(=O)c1c(C)c2cnc(Nc3ccc(N4CCNCC4)cn3)nc2n(C2CCCC2)c1=O`, for which the viability, T/C reads like this: (compound 0.000949 µM) 87.4% and 105%; (compound 0.003 µM) 87.3% and 96.4%; (compound 0.00949 µM) 79.2% and 84.6%; (compound 0.03 µM) 66.9% and 69.8%; (compound 0.0949 µM) 69.9% and 64.3%; (compound 0.3 µM) 51% and 55.9%. Also, where the note is “curve of compound”, the IC50 was above 300 nM.

As for `CC(C)(C)c1cnc(CSc2cnc(NC(=O)C3CCNCC3)s2)o1`, the viability, T/C is, setting by setting: (compound 0.00949 µM) 115% and 100%; (compound 0.03 µM) 127%; (compound 0.0949 µM) 143% and 156%; (compound 0.3 µM) 111% and 164%; (compound 0.949 µM) 1.31% and 0.89%; (compound 3 µM) 1.26% and 1.3%. The IC50 (curve of compound) is 570 nM and 626 nM.

As to `CC(C)NCC(C(=O)N1CCN(c2ncnc3c2C(C)CC3O)CC1)c1ccc(Cl)cc1` (stereo unspecified), the viability, T/C by setting is: (compound 0.1 µM) 89.5% [middle of 13 runs]; (compound 0.316 µM) 78.2% [middle of 12 runs]; (compound 1 µM) 58% [middle of 13 runs]; (compound 3.16 µM) 55.3% [middle of 13 runs]; (compound 10 µM) 58.4% [middle of 13 runs]. Moreover, the IC50 (compound alone, run of 05/18/2021) is > 10000 nM and 6660 nM and 1870 nM.

`CC(C)n1nc(-c2ccc3oc(N)nc3c2)c2c(N)ncnc21`: the viability, T/C by setting is: (compound 0.000316 µM) 94.6% and 91.2%; (compound 0.001 µM) 89.4% and 88.7%; (compound 0.00316 µM) 86.9% and 76%; (compound 0.01 µM) 76.9% and 68.7%; (compound 0.0316 µM) 67.5% and 60.2%; (compound 0.1 µM) 61.8% and 52.7%. The IC50 (curve of compound) is above 100 nM.

Regarding `CC1(C)CCC(CN2CCN(c3ccc(C(=O)NS(=O)(=O)c4ccc(NCC5CCOCC5)c([N+](=O)[O-])c4)c(Oc4cnc5[nH]ccc5c4)c3)CC2)=C(c2ccc(Cl)cc2)C1`, the viability, T/C is, setting by setting: (compound 0.0316 µM) 98.5% and 113%; (compound 0.1 µM) 98.3% and 122%; (compound 0.316 µM) 106% and 107%; (compound 1 µM) 108% and 102%; (compound 3.16 µM) 110% and 90.5%. Besides, the IC50 (curve of compound) is 8780 nM and 5330 nM.

In the case of `CCCS(=O)(=O)Nc1ccc(F)c(C(=O)c2c[nH]c3ncc(-c4ccc(Cl)cc4)cc23)c1F`, the viability, T/C by setting is: (compound 0.0316 µM) 102% and 106%; (compound 0.1 µM) 107% and 108%; (compound 0.316 µM) 99.7% and 108%; (compound 1 µM) 95.7% and 90.7%; (compound 3.16 µM) 67.7% and 69.2%; (compound 10 µM) 37% and 39.9%. Also, under “curve of compound”, the IC50 was 6160 nM and 6680 nM.

Turning to `CCN1CCN(Cc2ccc(Nc3ncc(F)c(-c4cc(F)c5nc(C)n(C(C)C)c5c4)n3)nc2)CC1`, the viability, T/C was 97.5% [middle of 13 runs] (compound 0.01 µM); 82.1% [middle of 13 runs] (compound 0.0316 µM); 63.8% [middle of 13 runs] (compound 0.1 µM); 57.4% [middle of 13 runs] (compound 0.316 µM); 59.1% [middle of 13 runs] (compound 1 µM).

For `COc1c(OCCCN2CCOCC2)ccc2c3n(c(=NC(=O)c4cnc(N)nc4)nc12)CCN3`, the viability, T/C was 93.8% and 99% (compound 0.00316 µM); 67.5% and 74.3% (compound 0.01 µM); 21.3% and 29.8% (compound 0.0316 µM); 9.21% and 9.49% (compound 0.1 µM); 4.67% and 4.86% (compound 0.316 µM); 4.72% and 4.34% (compound 1 µM). For the same compound, the IC50 (curve of compound) is 15.5 nM and 18.8 nM.

For the compound `Cc1nc(NC(=O)N2CCCC2C(N)=O)sc1-c1ccnc(C(C)(C)C(F)(F)F)c1` (stereo unspecified), the viability, T/C reads like this: (compound 0.0316 µM) 93.3% and 84.1%; (compound 0.1 µM) 80.6% and 87.4%; (compound 0.316 µM) 66.7% and 55.5%; (compound 1 µM) 36.9% and 39.1%; (compound 3.16 µM) 17.8% and 12.8%; (compound 10 µM) 4.84% and 2.57%. Further, under “curve of compound”, the IC50 is 599 nM and 533 nM.

As for `Cn1cnc2c(F)c(Nc3ccc(Br)cc3Cl)c(C(=O)NOCCO)cc21`, the viability, T/C (compound 0.00949 µM) is 79.6% and 64.7%; the viability, T/C (compound 0.03 µM) was 69.7% and 59.6%; the viability, T/C (compound 0.0949 µM) was 57.5% and 53.9%; the viability, T/C (compound 0.3 µM) is 48.1% and 43.7%; the viability, T/C (compound 0.949 µM) is 38.3% and 35.9%; the viability, T/C (compound 3 µM) is 19.1% and 15%. The concentration for half-maximal inhibition (IC50) (curve of compound) is 241 nM and 167 nM.

Take `Cn1ncc(Cl)c1-c1cc(C(=O)NC(CN)Cc2cccc(F)c2)sc1Cl` (stereo unspecified): the viability, T/C reads like this: (compound 0.0316 µM) 99.5% and 99.8%; (compound 0.1 µM) 89.4% and 102%; (compound 0.316 µM) 74.4% and 79.5%; (compound 1 µM) 73.6% and 68.3%; (compound 3.16 µM) 85% and 86%; (compound 10 µM) 0.3% and 0.39%. In addition, the IC50 (curve of compound) is 5060 nM and 5130 nM.

For the compound `Cn1nccc1Nc1nccc(-c2ccn(C(CO)c3ccc(Cl)c(F)c3)c(=O)c2)n1` (stereo unspecified), the viability, T/C (compound 0.0316 µM) is 97.1% and 93.1%; the viability, T/C (compound 0.1 µM) is 77% and 82.1%; the viability, T/C (compound 0.316 µM) is 64.1% and 70.2%; the viability, T/C (compound 1 µM) is 57.1% and 65.9%; the viability, T/C (compound 3.16 µM) was 34.3% and 33.6%; the viability, T/C (compound 10 µM) was 13% and 24.2%. For the same compound, where the note is “curve of compound”, the IC50 was 1070 nM and 1650 nM.

As for `Cn1ncnc1[C@H]1c2n[nH]c(=O)c3cc(F)cc(c23)N[C@@H]1c1ccc(F)cc1`, the viability, T/C reads like this: (compound 0.000316 µM) 110% and 111%; (compound 0.001 µM) 97.9% and 109%; (compound 0.00316 µM) 98.3% and 96.9%; (compound 0.01 µM) 86.5% and 107%; (compound 0.0316 µM) 95.6% and 93.8%; (compound 0.1 µM) 86.1% and 84.1%. Further, for the setting “curve of compound”, the IC50 is above 100 nM.

For the origin of these results see PubChem BioAssay AID2060337 (Molecular Pharmacology Branch, DTP, NCI, 2025).
